Measurements published in patent publication US20240197596A1, “COMPOUNDS USEFUL AS HAIR DYES” (National University of Singapore, priority 2021, published 2024).
pIC50: −log10 of the molar value. Values after ≈ are worked out from the molar mass of the structure shown. “Also recorded” adds a separate entry of the source. Where two headings read alike, the source gives them in different places.

Legend:
[1] = Thermodynamic solubility assay (modified shake flask, LC-MS/MS); conditions: Milli-Q water, pH=7, 25° C., 24 h, 3 separate determinations; for solubility at 24 h: 25 °C, pH 7, water, thermodynamic from solid
Procedure: The aqueous solubilities (pH=7) of these compounds were measured using the modified shake flask method and LC-MS/MS. Each hair dye was added into a 2 mL glass vial containing Milli-Q water (1 mL) to form the precipitates at 25° C. Then the mixture was subjected to a solubility-equilibrium stage. The vials were shaken at 300 rpm at 25° C. for 24 h. The precipitate was separated by centrifugation at 23,000 g for 20 min. Subsequently, 0.5 mL of supernatant was transferred into a 1 mL Eppendorf tube, and it was centrifuged again as mentioned above. The supernatant was then used for LC-MS/MS analysis.
The mass spectrometric analysis was performed by use of a AB SCIEX QTRAP 5500 tandem mass spectrometry (MS/MS) system (AB SCIEX, Framingham, MA, USA) operating in triple quadrupole positive mode (ESI+) equipped with an AB Sciex Turbo Ion Spray interface. Acquisition and analysis of data were performed with Analyst software ver. 1.4.2 (Applied Biosystems) which performed all chromatographic peak integration. For each hair dye, a standard curve consisting of four concentrations was established.
Solvent A was composed of 0.1% [v/v] formic acid in Milli-Q water while solvent B was composed of 0.1% [v/v] formic acid in acetonitrile. A mobile phase gradient pumped at 0.6 mL/min was used to elute the hair dyes from the column. The column was equilibrated for 1 min resulting in a total run time of 5 min. The injection volume was 5.0 μL for all derivatives. To prevent compound accumulation on the needle, 50% methanol in ACN was used as needle wash for 30 s per sample.

HaCaT cells = assay: MTT assay on HaCaT cells; assay type: cell-based; conditions: Homo sapiens, 72 h
Procedure: HaCaT (human, adult, low calcium, high temperature, skin keratinocyte) cell suspension was adjusted to 5×10^3 cells per well and seeded in 96-well plates, then incubated at 37° C. with 5% CO2. After 24 h, 10 mM stock solutions of N1-N13 in autoclaved milli-Q water were prepared and serially diluted concentrations were added to the wells. Each concentration was performed in 6-replicates, and seeded wells with only media and no compound were used as controls while wells with only media were used as blanks. The plate was incubated for 72 h, after which 100 μL of MTT reagent was added and the plate was further incubated for 3 h before adding 100 μL of DMSO. Subsequently, the plate was shaken for 20 min, and then absorbance at 570 nm was determined using a Bio-Tek plate reader.

THP-1 cells = assay: MTT assay on THP-1 cells (CV75); assay type: cell-based, human; conditions: THP-1 cells, 24 h
Procedure: THP-1 (human acute monocytic leukaemia cell line) cell suspension was adjusted to 1×10^5 cells per well and seeded in 96-well plates. The plate was incubated at 37° C. with 5% CO2. After 24 h, 10 mM stock solutions of N1-N13 were prepared in autoclaved milli-Q water. A series of concentrations diluted in media was prepared and added to the wells. Each concentration was performed in 6-replicates, and seeded wells with only media and no compound were used as controls while wells with only media were used as blanks. The plate was incubated for 24 h, after which 100 μL of MTT reagent was added and the plate was further incubated for 3 h before adding 100 μL of DMSO. Subsequently, the plate was shaken for 20 min, and then absorbance at 570 nm was determined using a Bio-Tek plate reader. Percentage cell viability was calculated and CV75 values were determined.

Hair nuance test = assay: Hair nuance test; parameters: key to L* / a* / b*: CIELAB L*, a*, b* coordinates; key to ΔE (total colour difference to natural hair): ΔE = √((L*−L0)²+(a*−a0)²+(b*−b0)²) vs untreated hair; conditions: for eventual colour of bleached hair, Type B: Type B (Oxidative, H2O2) formulation; for eventual colour of bleached hair, Type C: Type C (Oxidative with coupler resorcinol) formulation; for eventual colour of bleached hair, Type A: Type A (Non-oxidative) formulation
Procedure: 35 g of bleaching powder was mixed with 50 mL of developer then applied onto undyed black hair (wrapped in aluminium foil to enhance the bleaching process) and left on for 45 min. The hair was then rinsed with deionized water and shampoo and left to dry. This process was repeated twice.
Hair dye formulations were prepared from N1-N13 according to methods reported (New Journal of Chemistry. 2019; 43(41):16188-99), and with the compositions stated in Table 11 Bleached hair samples were immersed into the respective formulations for 20 min, then air dried for 20 min. Then they were shampooed twice and treated with conditioner for 5 min.
SkinColorCatch (Delfin Technologies Ltd, Kuopio, Finland) was used to measure CIELAB tristimulus L*, a* and b* values of the dyed hair samples and baseline L0, a0, b0 values from untreated hair. The difference in colour tone (ΔH) and the total colour difference (ΔE) were then derived from the values obtained with the equations below:
ΔH=√{square root over ((a*−a0)^2+(b*−b0)^2)}
ΔE=√{square root over ((L*−L0)^2+(a*−a0)^2+(b*−b0)^2)}

[2] = HaCaT cells, MTT, read-out: IC50
[3] = Type C (Oxidative with coupler resorcinol)

solubility at 24 h [1]	Solubility [1]	SMILES	CV75 (concentration affording 75% cell viability), 1 × CV75 (THP-1 cells)	L* (Hair nuance test; Type A (Non-oxidative))	a* (Hair nuance test; Type A (Non-oxidative))	b* (Hair nuance test; Type A (Non-oxidative))	ΔE (total colour difference to natural hair) (Hair nuance test; Type A (Non-oxidative))	ΔH (difference in colour tone) (Hair nuance test; Type A (Non-oxidative))	L* (Hair nuance test; Type B (Oxidative))	a* (Hair nuance test; Type B (Oxidative))	b* (Hair nuance test; Type B (Oxidative))	ΔE (total colour difference to natural hair) (Hair nuance test; Type B (Oxidative))	ΔH (difference in colour tone) (Hair nuance test; Type B (Oxidative))	eventual colour of bleached hair, Type B (Hair nuance test)	L* (Hair nuance test; [3])	a* (Hair nuance test; [3])	b* (Hair nuance test; [3])	ΔE (total colour difference to natural hair) (Hair nuance test; [3])	ΔH (difference in colour tone) (Hair nuance test; [3])	eventual colour of bleached hair, Type C (Hair nuance test)	other results
78 to 100 mg/mL (≈ 464 to 595 mM)	90 + 2.6 mg/ml	COCOc1cc(N)ccc1N [Compound N2, 2-(methoxymethoxy)benzene-1,4-diamine]	72.4 µg/mL	11	1	−2	3.7	3.16	9	0	−1	2.0	2.0	–	21	17	6	21.4	17.7	Black	pIC50 (HaCaT cells; [2]): 3.53; eventual colour of bleached hair, Type A (Hair nuance test): Walnut brown
65 to 72 mg/mL (≈ 357 to 395 mM)	65 + 3.6 mg/ml	CCOCOc1cc(N)ccc1N [Compound N3, 2-(ethoxymethoxy)benzene-1,4-diamine]	115 µg/mL	19	5	4	11.6	5.8	9	0	−1	–	2.0	black colour	17	−1	2	8.1	1.4	Brownish black	pIC50 (HaCaT cells; [2]): 3.34; eventual colour of bleached hair, Type A (Hair nuance test): Black
65 to 72 mg/mL (≈ 357 to 395 mM)	62 mg/mL (≈ 340 mM)	COCCOc1cc(N)ccc1N [Compound N7, 2-(2-methoxyethoxy)benzene-1,4-diamine]	44.6 µg/mL	22	2.7	4.7	13.8	4.6	19	4.7	3	11.2	5.1	Walnut brown	12.3	−0.7	−4	6.0	5.0	vibrant blue colours; also recorded: Navy blue	pIC50 (HaCaT cells; [2]): 4.47; eventual colour of bleached hair, Type A (Hair nuance test): dark brown colour shade; also recorded: Dark hazelnut

The next lines start with the compound.

SMILES	solubility at 24 h [1]	Solubility [1]	CV75 (concentration affording 75% cell viability), 1 × CV75 (THP-1 cells)	L* (Hair nuance test; Type A (Non-oxidative))	a* (Hair nuance test; Type A (Non-oxidative))	b* (Hair nuance test; Type A (Non-oxidative))	ΔE (total colour difference to natural hair) (Hair nuance test; Type A (Non-oxidative))	ΔH (difference in colour tone) (Hair nuance test; Type A (Non-oxidative))	L* (Hair nuance test; Type B (Oxidative))	a* (Hair nuance test; Type B (Oxidative))	b* (Hair nuance test; Type B (Oxidative))	ΔE (total colour difference to natural hair) (Hair nuance test; Type B (Oxidative))	ΔH (difference in colour tone) (Hair nuance test; Type B (Oxidative))	eventual colour of bleached hair, Type B (Hair nuance test)	L* (Hair nuance test; [3])	a* (Hair nuance test; [3])	b* (Hair nuance test; [3])	ΔE (total colour difference to natural hair) (Hair nuance test; [3])	ΔH (difference in colour tone) (Hair nuance test; [3])	eventual colour of bleached hair, Type C (Hair nuance test)	other results
COC(COc1cc(N)ccc1N)OC [Compound N1, 2-(2,2-dimethoxyethoxy)benzene-1,4-diamine]	78 to 100 mg/mL (≈ 367 to 471 mM)	85 + 4.0 mg/ml	143.4 µg/mL	23	12	8	19.7	13.9	9	−0	−1	2.0	2.0	black colour	21	18	8	22.7	19.3	Dark brown	pIC50 (HaCaT cells; [2]): 3.29
Nc1ccc(N)c(OCC2CO2)c1 (stereo not shown) [Compound N4, 2-(oxiran-2-ylmethoxy)benzene-1,4-diamine]	65 to 72 mg/mL (≈ 361 to 400 mM)	70 + 4.6 mg/ml	62.3 µg/mL	49	5	29	49.1	28.4	40	6	16	35.0	16.2	Coffee brown	22	1	−13	19.1	14.0	vibrant blue colours; also recorded: Admiral blue	pIC50 (HaCaT cells; HaCaT): 3.24
COCCOCCOc1cc(N)ccc1N [Compound N5, 2-[2-(2-methoxyethoxy)ethoxy]benzene-1,4-diamine]	78 to 100 mg/mL (≈ 345 to 442 mM)	85 + 2.5 mg/ml	68.3 µg/mL	18	4	−1	10.0	4.5	26	3.7	10.3	19.7	10.0	Almond brown	16	0	−6.7	10.4	7.7	vibrant blue colours; also recorded: Indigo	pIC50 (HaCaT cells; [2]): 4.36; eventual colour of bleached hair, Type A (Hair nuance test): dark brown colour shade; also recorded: Dark cinnamon brown
N#CCOc1cc(N)ccc1N [Compound N6, 2-(2,5-diaminophenoxy)acetonitrile]	–	–	123.7 µg/mL	55.0	10.0	19.0	50.3	20.5	15	4	5	8.2	5.6	Dark brown	13	5	4	7.1	5.8	Brownish black	pIC50 (HaCaT cells; HaCaT): < 3.00; eventual colour of bleached hair, Type A (Hair nuance test): light colours; also recorded: Rose pink
